According to patent US9573907B2, “2, 4-pyrimidine derivatives and use thereof” (SNU R&DB FOUNDATION, priority 2009, dated 2017):

Columns and labels:
AIMP1 = molecular target: T1, AIMP1 (Homo sapiens, UniProt Q12904); test: Surface plasmon resonance, binding to AIMP1; conditions: SPR, BIAcore 3000
T1 sequence (Q12904 1-312): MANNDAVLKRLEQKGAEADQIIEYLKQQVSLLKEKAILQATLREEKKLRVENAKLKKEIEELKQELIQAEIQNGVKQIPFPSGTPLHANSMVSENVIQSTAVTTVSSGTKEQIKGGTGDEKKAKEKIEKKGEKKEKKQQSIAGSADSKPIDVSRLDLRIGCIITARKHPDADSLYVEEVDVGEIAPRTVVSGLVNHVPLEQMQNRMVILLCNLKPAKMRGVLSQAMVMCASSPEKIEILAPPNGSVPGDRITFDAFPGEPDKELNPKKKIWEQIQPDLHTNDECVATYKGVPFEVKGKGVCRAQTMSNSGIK
Source text: The present inventors compared the dose-dependent effect of GPM1 and NC1 on the interaction of gp96 and AIMP1 using ELISA. […] The present inventors monitored the binding kinetics of GPM1 to gp96 or AIMP1 by surface plasmon resonance (SPR) using BIAcore 3000. […] To further define the GPM1 binding region of gp96 (Han, J. M., Park, S. G., Liu, B., Park, B. J., Kim, J. Y., Jin, C. H., Song, Y. W., Li, Z. & Kim, S. Am. J. Pathol. 170, 2042-2054 (2007)), the present inventors introduced point mutations at L707, V706, V712, L713, F714, Y731 and M738 that are located within AIMP1 binding region of gp96 and monitored how the mutations at these sites would affect the binding of GPM1 to gp96 using SPR method.

gp96tm transgenic mice = tested on: gp96tm transgenic mice
Method: Female gp96tm transgenic mice (Proc Natl Acad Sci USA. 2003 December 23; 100(26): 15824-15829) were bred and maintained at the animal center for pharmaceutical research, Seoul National University. We used age-matched, 12-26 weeks old mice in each experimental group. To suppress cell surface gp96 we used GPM1 compound. Dexamethasone and GPM1 were dissolved in 5% DMSO in phosphate-buffered saline (PBS) and control vehicle was 5% DMSO in PBS. Compounds were administered i.p. every 24 h for 2 months (30 mg/kg/day). Three groups of each 9 mice were examined. All procedures were conducted in accordance with the Guide for the Care and Use of Laboratory Animals, published by the Korean National Institute of Health.
Spleen and lymph node cell suspensions were prepared by grindling tissue through sterile mesh and erythrocytes were lysed with RBC lysis buffer (eBioscience, CA). For surface staining, antibodies were fluoresceinisothiocyanate (FITC)-, phycoerythrin (PE)-, PerCP-, or APC-conjugated. Antibodies used were CD4 (RM4-5, H129.12), CD8 (53-6,7), B220 (RA3-6B2), CD11b (M1/70), CD11c (HL3), CD44 (IM7), CD62L (MEL-14), CD69 (H1.2F3), CD25 (PC61.5), IgM (11/41), IgD (11-26C.2a) (BD Pharmingen, CA), MHC class II (M5/114.15.2), Foxp3 (FJK-16s) (eBioscience, CA), and gp96 (Santacruz, Calif.). After staining, cells were washed and analyzed on a FACS can flow cytometer using CellQuest software (BD Bioscience, Mountain View, Calif.).
Kidney tissue sections of gp96tm transgenic mice were fixed in 10% formaldehyde in PBS and dehydrated using an alcohol gradient. After paraffin infiltration, the tissues were sectioned using a microtome, stained with hematoxylin and eosin (H&E) and analyzed by light microscopy. For immunofluorescent staining, kidneys were sectioned with a cryostat. These cryosections were blocked with normal goat serum, stained with FITC-conjugated goat anti-mouse Ig (BD pharmingen, CA), and then observed by fluorescent microscopy.
The present inventors compared the effect of GPM1 with phosphate-buffered saline containing 5% DMSO and dexamethasone (Dex), an immunosuppressant of glucocorticoid family as negative and positive control, respectively. Each group consisted of age-matched nine female mice. […] After 2 month, the present inventors isolated MHC class II^+ splenocytes and lymph nodes from vehicle-, Dex-, and GPM1-treated mice and determined the portion of gp96^+ cells by flow cytometry.

[1] = spleen and lymph nodes, 30 mg/kg

In the case of COC(=O)[C@@H](Oc1nc(OC)cc(OC)n1)C(C)C [GPM1, (S)-methyl 2-(4,6-dimethoxypyrimidin-2-yloxy)-3-methylbutanoate], the “binding to AIMP1” value (AIMP1) is reported as “no apparent binding”, the “glomerulonephritis phenotypes and glomerular immunoglobulin deposition” value (gp96tm transgenic mice; kidney sections) is reported as “lessened” and the “total cell count (spleen)” value (gp96tm transgenic mice; mouse, in vivo, 30 mg/kg/day) is reported as 4.56 ± 1.44 × 10^6. The “adverse effects / death during administration” value (gp96tm transgenic mice; mouse, in vivo, ip, 30 mg/kg) was “did not give apparent adverse effects”, the DNA-specific autoantibody levels (gp96tm transgenic mice; serum) was “reduced” and the “Nuclear antigen-specific autoantibody levels” value (gp96tm transgenic mice; serum) was “reduced”. The “total serum levels of IgG1, IgG2b, IgG3, IgM, and IgA” value (gp96tm transgenic mice; serum, ELISA) was “reduced”, the “CD4+CD25+Foxp3+ regulatory T cell population” value (gp96tm transgenic mice; spleen and lymph nodes) was “increase” and the “population of CD4+ memory cells and activated CD4+ T cells” value (gp96tm transgenic mice; spleen and lymph nodes) was “reduction”. The “B220+ population” value (gp96tm transgenic mice; [1]) was “reduced”, the “MHC class II+ population” value (gp96tm transgenic mice; [1]) was “reduced” and the “mature B cell population (B220+IgM+IgD+)” value (gp96tm transgenic mice; splenocytes) was “decreased”. For the same compound, the “ICOSL levels in CD11b+CD11c+ myeloid DC” value (gp96tm transgenic mice; splenocytes, 30 mg/kg) was “significantly reduced”, the “ICOSL levels in CD11b+CD11c− macrophages” value (gp96tm transgenic mice; splenocytes, 30 mg/kg) was “suppressed” and the “ICOSL levels in CD11b−CD11c+ lymphoid DCs” value (gp96tm transgenic mice; splenocytes, 30 mg/kg) was “little difference”. The “percentages of gp96+ MHC class II+ cells” value (gp96tm transgenic mice; splenocytes, after 2 month, 30 mg/kg) was ~41% and the Proteinuria (gp96tm transgenic mice; urine) was “reduced”.
